SMILES strings stand for the structures.

For this assay, the target named is PI3-kinase p110-delta/p85-alpha (Homo sapiens, UniProt O00329). In words: Inhibition of His-tagged full-length recombinant human PIK3CD/PIK3R1 extracted from baculovirus expression system incubated for 1 hr by FRET assay.
PI3-kinase p110-delta/p85-alpha, sequence (P27986 whole entry): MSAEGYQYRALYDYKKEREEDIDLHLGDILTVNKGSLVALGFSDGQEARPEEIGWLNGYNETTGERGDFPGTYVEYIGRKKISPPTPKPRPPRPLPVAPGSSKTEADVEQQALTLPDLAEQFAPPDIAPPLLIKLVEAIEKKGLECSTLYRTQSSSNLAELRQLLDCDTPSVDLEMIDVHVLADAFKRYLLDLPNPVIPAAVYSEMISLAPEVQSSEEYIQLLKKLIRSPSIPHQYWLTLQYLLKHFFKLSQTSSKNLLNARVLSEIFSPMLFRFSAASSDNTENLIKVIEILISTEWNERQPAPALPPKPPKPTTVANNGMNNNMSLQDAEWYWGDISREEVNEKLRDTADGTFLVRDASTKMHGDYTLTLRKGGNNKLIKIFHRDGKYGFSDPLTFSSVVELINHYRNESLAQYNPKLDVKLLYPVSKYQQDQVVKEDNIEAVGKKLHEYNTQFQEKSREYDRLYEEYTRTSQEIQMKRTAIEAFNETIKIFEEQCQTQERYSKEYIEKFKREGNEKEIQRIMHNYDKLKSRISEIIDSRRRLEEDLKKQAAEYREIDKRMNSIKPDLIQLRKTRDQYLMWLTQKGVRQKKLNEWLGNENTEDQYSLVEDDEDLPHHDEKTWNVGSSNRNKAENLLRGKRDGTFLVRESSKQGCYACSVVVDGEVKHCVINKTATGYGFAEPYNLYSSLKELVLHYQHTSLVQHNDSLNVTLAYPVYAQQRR
PI3-kinase p110-delta/p85-alpha, sequence (O00329 whole entry): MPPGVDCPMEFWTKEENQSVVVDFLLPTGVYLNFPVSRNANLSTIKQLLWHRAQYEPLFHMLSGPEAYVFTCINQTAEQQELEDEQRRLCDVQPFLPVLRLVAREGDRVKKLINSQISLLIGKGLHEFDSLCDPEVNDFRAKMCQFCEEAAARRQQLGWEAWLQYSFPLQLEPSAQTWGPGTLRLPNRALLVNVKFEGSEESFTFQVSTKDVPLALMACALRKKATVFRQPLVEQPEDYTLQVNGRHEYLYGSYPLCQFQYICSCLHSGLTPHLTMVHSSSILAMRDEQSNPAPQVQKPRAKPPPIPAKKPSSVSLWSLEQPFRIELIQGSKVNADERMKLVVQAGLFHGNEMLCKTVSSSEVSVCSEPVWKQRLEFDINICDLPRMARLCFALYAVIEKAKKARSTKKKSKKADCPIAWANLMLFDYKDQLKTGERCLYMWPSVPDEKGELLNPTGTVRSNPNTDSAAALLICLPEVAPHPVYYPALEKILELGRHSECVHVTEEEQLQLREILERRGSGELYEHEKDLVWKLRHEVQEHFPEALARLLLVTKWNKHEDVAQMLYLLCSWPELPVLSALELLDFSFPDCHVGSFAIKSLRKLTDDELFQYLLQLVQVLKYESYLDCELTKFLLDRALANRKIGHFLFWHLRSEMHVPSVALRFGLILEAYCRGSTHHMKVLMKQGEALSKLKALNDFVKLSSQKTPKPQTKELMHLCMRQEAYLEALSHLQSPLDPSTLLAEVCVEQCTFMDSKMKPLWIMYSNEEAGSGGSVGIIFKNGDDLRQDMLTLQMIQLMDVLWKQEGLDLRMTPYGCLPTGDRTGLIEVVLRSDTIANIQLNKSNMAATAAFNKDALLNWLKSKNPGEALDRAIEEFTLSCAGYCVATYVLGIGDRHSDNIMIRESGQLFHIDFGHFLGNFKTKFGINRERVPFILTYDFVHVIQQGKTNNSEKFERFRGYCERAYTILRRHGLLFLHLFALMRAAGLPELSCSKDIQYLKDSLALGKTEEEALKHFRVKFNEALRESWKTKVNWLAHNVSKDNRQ

On to `Cc1ccc(-c2ccn3nc(N)nc3c2)c(F)c1C(=O)NC[C@@H](F)[C@H](O)c1ccc(Cl)cc1`, for which the IC50 is above 15 nM. Consider `Cc1ccc(-c2ccn3nc(N)nc3c2)c(F)c1C(=O)NCCC(F)c1ccc(Cl)cc1` (racemic), for which the half-maximal inhibitory concentration (IC50) is above 15 nM. The result for `Cc1ccc(-c2ccn3nc(N)nc3c2)c(F)c1C(=O)NCC(F)(F)C(O)c1ccc(Cl)c(Cl)c1` (single isomer, unassigned) reads above 15 nM; that for `COc1c(F)cccc1C(O)CCNC(=O)c1c(C)ccc(-c2ccn3nc(N)nc3c2)c1F` (single isomer, unassigned), 15 nM; that for `Cc1ccc(-c2ccn3nc(N)nc3c2)c(F)c1C(=O)NCCC(O)c1ccc(Cl)cn1` (stereo not drawn), above 15 nM. In the case of `Cc1cc(F)c(-c2ccn3nc(N)nc3c2)cc1C(=O)NCCC(O)c1ccc(C(F)(F)F)cc1` (racemic), the IC50 was above 15 nM.

For `Cc1ccc(-c2ccn3nc(N)nc3c2)c(F)c1C(=O)NC(CF)CC(O)c1ccc(Cl)cc1` (stereo not drawn), the half-maximal inhibitory concentration (IC50) was above 15 nM. `Cc1ccc(-c2ccn3nc(N)nc3c2)c(F)c1C(=O)NCC(F)(F)C(O)C1CC(F)(F)C1` (single isomer, unassigned): the IC50 was above 15 nM.

By IC50 is commonly meant the point on the concentration scale where inhibition reaches its midpoint.

For the origin of these results see ChEMBL document CHEMBL6153162, “Receptor-Interacting Protein Kinase 1 (RIPK1) Inhibitors as Potential Treatment for Several Inflammatory and Neurodegenerative Diseases” (ACS Med Chem Lett, 2025).
